Where only a bound is given, the exact number is not on record here.

A word on the melting point: it is the temperature of the solid-liquid transition. With `CCNC(=O)Nc1cnc2ccc(-c3cnn(C)c3)nc2n1` [Compound 10, 1-Ethyl-3-[6-(1-methyl-1H-pyrazol-4-yl)-pyrido[2,3-b]pyrazin-3-yl]urea], the melting point turned out to be 211 °C.

As to `COc1cc(Nc2cnc3ccc(NC(=S)NCc4ccccc4)nc3n2)cc(OC)c1OC` [Compound 697, 1-Benzyl-3-[3-(3,4,5-trimethoxy-phenylamino)-pyrido[2,3-b]pyrazin-6-yl]-thiourea], the melting point lay within 250 to 252 °C.

Compound `CCNC(=O)Nc1ccc2ncc(-c3ccc(C)c([N+](=O)[O-])c3)nc2n1` [Compound 85, 1-Ethyl-3-[3-(4-methyl-3-nitro-phenyl)-pyrido[2,3-b]pyrazin-6-yl]-urea] displayed a melting point of 253.3 to 256.2 °C.

With `CCNC(=O)Nc1cnc2ccc(-c3cc(C)c(O)c(Cl)c3)nc2n1` [Compound 642, 1-[6-(3-Chloro-4-hydroxy-5-methyl-phenyl)-pyrido[2,3-b]pyrazin-3-yl]-3-ethyl-urea], the melting point was 266 °C.

In turn, `CCNC(=O)Nc1ccc2ncc(-c3ccc(Cl)cc3)nc2n1` [Compound 122, 1-[3-(4-Chloro-phenyl)-pyrido[2,3-b]pyrazin-6-yl]-3-ethyl-urea] yielded a melting point of 244 to 247 °C.

On to `CCNC(=O)Nc1ccc2ncc(-c3ccc(O)c(Br)c3)nc2n1` [Compound 47, 1-[3-(3-Bromo-4-hydroxy-phenyl)-pyrido[2,3-b]pyrazin-6-yl]-3-ethyl-urea], for which the melting point lay in the range of 337 to 339 °C.

The compound `COc1cc(-c2ccc3ncc(NC(=O)Nc4ccccc4[N+](=O)[O-])nc3n2)ccc1O` [Compound 617, 1-[6-(4-Hydroxy-3-methoxy-phenyl)-pyrido[2,3-b]pyrazin-3-yl]-3-(2-nitro-phenyl)-urea] registered a melting point of 220 to 222 °C.

The compound `CCNC(=O)Nc1ccc2ncc(-c3cccc([N+](=O)[O-])c3)nc2n1` [Compound 101, 1-Ethyl-3-[3-(3-nitro-phenyl)-pyrido[2,3-b]pyrazin-6-yl]-urea] displayed a melting point of 249 to 253 °C.

Compound `CCNC(=O)Nc1ccc2ncc(-c3cccc(OC(F)(F)F)c3)nc2n1` [Compound 118, 1-Ethyl-3-[3-(3-trifluoromethoxy-phenyl)-pyrido[2,3-b]pyrazin-6-yl]-urea] gave a melting point of 239 to 240 °C.

The compound `COc1ccc(NC(=O)Nc2cnc3ccc(-c4ccc(O)c(OC)c4)nc3n2)cc1` [Compound 625, 1-(4-Methoxy-phenyl)-3-[6-(4-hydroxy-3-methoxy-phenyl)-pyrido[2,3-b]pyrazin-3-yl]-urea] came in with a melting point of 235 to 238 °C.

Take `CCNC(=O)Nc1ccc2ncc(-c3ccccc3C)nc2n1` [Compound 105, 1-Ethyl-3-(3-o-tolyl-pyrido[2,3-b]pyrazin-6-yl)-urea]: the melting point is 218 to 220 °C.

In the case of `CCNC(=O)Nc1ccc2ncc(Nc3cccc(Cl)c3)nc2n1` [Compound 167, 1-[3-(3-Chloro-phenylamino)-pyrido[2,3-b]pyrazin-6-yl]-3-ethyl-urea], the melting point was 253 °C.

`CCNC(=O)Nc1ccc2ncc(-c3ccc(C)c(F)c3)nc2n1` [Compound 83, 1-Ethyl-3-[3-(3-fluoro-4-methyl-phenyl)-pyrido[2,3-b]pyrazin-6-yl]-urea]: the melting point was in the range of 247.8 to 252.4 °C.

The compound `CCNC(=O)Nc1cnc2ccc(N3CCCN(C)CC3)nc2n1` [Compound 233, 1-Ethyl-3-[6-(4-methyl-[1,4]diazepan-1-yl)-pyrido[2,3-b]pyrazin-3-yl]-urea] displayed a melting point of 199 to 201 °C.

Regarding `COc1cc(-c2ccc3ncc(NC(=O)NCCCc4ccccc4)nc3n2)ccc1O` [Compound 629, 1-[6-(4-Hydroxy-3-methoxy-phenyl)-pyrido[2,3-b]pyrazin-3-yl]-3-(3-phenyl-propyl)-urea], the melting point lay within 233 to 236 °C.

In turn, `CCNC(=O)Nc1ccc2ncc(-c3cc(C)cc(Br)c3)nc2n1` [Compound 94, 1-[3-(3-Bromo-5-methyl-phenyl)-pyrido[2,3-b]pyrazin-6-yl]-3-ethyl-urea] showed a melting point of 270 to 274 °C.

`COc1cc(Nc2cnc3ccc(NC(=S)NC4CC4)nc3n2)cc(OC)c1OC` [Compound 707, 1-Cyclopropyl-3-[3-(3,4,5-trimethoxy-phenylamino)-pyrido[2,3-b]pyrazin-6-yl]-thiourea] displayed a melting point of 248 °C.

For the compound `CCNC(=O)Nc1ccc2ncc(-c3ccc(F)c(F)c3)nc2n1` [Compound 95, 1-[3-(3,4-Difluoro-phenyl)-pyrido[2,3-b]pyrazin-6-yl]-3-ethyl-urea], the melting point lay in the range of 259 to 262 °C.

Compound `COc1ccc(-c2ccc3ncc(NC(=O)c4ccccc4)nc3n2)cc1OC` [Compound 660, N-[6-(3,4-Dimethoxy-phenyl)-pyrido[2,3-b]pyrazin-3-yl]-benzamide] registered a melting point of 168 to 170 °C.

In turn, `CCNC(=O)Nc1cnc2ccc(Nc3ccc(O)c(OC)c3)nc2n1` [Compound 21, 1-Ethyl-3-[6-(4-hydroxy-3-methoxy-phenylamino)-pyrido[2,3-b]pyrazin-3-yl]-urea] registered a melting point of 255 °C.

For the compound `CCNC(=O)Nc1ccc2ncc(-c3cccc(CO)c3)nc2n1` [Compound 115, 1-Ethyl-3-[3-(3-hydroxymethyl-phenyl)-pyrido[2,3-b]pyrazin-6-yl]-urea], the melting point was in the range of 200 to 202 °C.

Compound `CCNC(=O)Nc1ccc2ncc(-c3ccc(NC(C)=O)c(OC)c3)nc2n1` [Compound 77, N-{4-[6-(3-Ethyl-ureido)-pyrido[2,3-b]pyrazin-3-yl]-2-methoxy-phenyl}-acetamide] gave a melting point greater than 300 °C.

On to `COc1cc(-c2ccc3ncc(NC(=O)NCCCCc4ccccc4)nc3n2)ccc1O` [Compound 630, 1-[6-(4-Hydroxy-3-methoxy-phenyl)-pyrido[2,3-b]pyrazin-3-yl]-3-(4-phenyl-butyl)-urea], for which the melting point was in the range of 208 to 210 °C.

Turning to `CCNC(=O)Nc1ccc2ncc(-c3ccccc3OCc3ccccc3)nc2n1` [Compound 57, 1-[3-(2-Benzyloxy-phenyl)-pyrido[2,3-b]pyrazin-6-yl]-3-ethyl-urea], the melting point lay within 181 to 183 °C.

`O=C(Nc1cnc2ccc(-c3cc(Cl)c(O)c(Cl)c3)nc2n1)Nc1ccccc1[N+](=O)[O-]` [Compound 561, 1-[6-(3,5-Dichloro-4-hydroxy-phenyl)-pyrido[2,3-b]pyrazin-3-yl]-3-(2-nitro-phenyl)-urea] displayed a melting point greater than 300 °C.

As for `CCNC(=O)Nc1ccc2ncc(-c3ccc(NC(=O)OCCOCCOCCOC)c(OC)c3)nc2n1` [Compound 44, {4-[6-(3-Ethyl-ureido)-pyrido[2,3-b]pyrazin-3-yl]-2-methoxy-phenyl}-carbamic acid 2-[2-(2-methoxy-ethoxy)-ethoxy]-ethyl ester], the melting point was greater than 330 °C.

Consider `CC(=O)Nc1ccc2ncc(Nc3cccc(OC(C)C)c3)nc2n1` [Compound 36, N-[3-(3-Isopropoxy-phenylamino)-pyrido[2,3-b]pyrazin-6-yl]-acetamide], for which the melting point turned out to be 177 °C.

The compound `CCNC(=O)Nc1cnc2ccc(Nc3cc(Cl)c(O)c(Cl)c3)nc2n1` [Compound 15, 1-[6-(3,5-Dichloro-4-hydroxy-phenylamino)-pyrido[2,3-b]pyrazin-3-yl]-3-ethyl-urea] registered a melting point of 272 °C.

`COc1ccc(-c2ccc3ncc(NC(=O)NCCc4ccccc4)nc3n2)cc1OC` [Compound 577, 1-[6-(3,4-Dimethoxy-phenyl)-pyrido[2,3-b]pyrazin-3-yl]-3-phenethyl-urea] gave a melting point of 254 to 257 °C.

Regarding `CCNC(=O)Nc1cnc2ccc(-c3ccc(C)cc3)nc2n1` [Compound 178, 1-Ethyl-3-(6-p-tolyl-pyrido[2,3-b]pyrazin-3-yl)-urea], the melting point lay within 227 to 228 °C.

The compound `COc1cc(-c2ccc3ncc(NC(=S)NC(C)(C)C)nc3n2)ccc1O` [Compound 652, 1-tert-Butyl-3-[6-(4-hydroxy-3-methoxy-phenyl)-pyrido[2,3-b]pyrazin-3-yl]-thiourea] showed a melting point of 213 to 215 °C.

In turn, `COc1cc(-c2ccc3ncc(NC(=O)NC4CCC(C)CC4)nc3n2)ccc1O` (stereo not shown) [Compound 612, 1-[6-(4-Hydroxy-3-methoxy-phenyl)-pyrido[2,3-b]pyrazin-3-yl]-3-(4-methyl-cyclohexyl)-urea] came in with a melting point of 272 to 273 °C.

Compound `COc1cc(-c2ccc3ncc(NC(=O)NC(C)(C)C)nc3n2)ccc1O` [Compound 28, 1-tert-Butyl-3-[6-(4-hydroxy-3-methoxy-phenyl)-pyrido[2,3-b]pyrazin-3-yl]-urea] came in with a melting point of 219 to 222 °C.

Compound `CCNC(=S)Nc1ccc2ncc(Nc3ccc4ccccc4c3)nc2n1` [Compound 168, 1-Ethyl-3-[3-(naphthalen-2-ylamino)-pyrido[2,3-b]pyrazin-6-yl]-thiourea] returned a melting point of 289 °C.

The compound `CCNC(=O)Nc1ccc2ncc(-c3ccccc3Cl)nc2n1` [Compound 104, 1-[3-(2-Chloro-phenyl)-pyrido[2,3-b]pyrazin-6-yl]-3-ethyl-urea] gave a melting point of 310 °C.

The compound `CCNC(=O)Nc1cnc2ccc(-c3ccc(O)c(Br)c3)nc2n1` [Compound 641, 1-[6-(3-Bromo-4-hydroxy-phenyl)-pyrido[2,3-b]pyrazin-3-yl]-3-ethyl-urea] came in with a melting point of 291 °C.

For `Cc1cc(-c2ccc3ncc(NC(=O)NCCc4ccccc4)nc3n2)cc(C)c1O` [Compound 588, 1-[6-(4-Hydroxy-3,5-dimethyl-phenyl)-pyrido[2,3-b]pyrazin-3-yl]-3-phenethyl-urea], the melting point lay within 267 to 269 °C.

`CCCNC(=S)Nc1ccc2ncc(Nc3cc(OC)c(OC)c(OC)c3)nc2n1` [Compound 501, 1-Propyl-3-[3-(3,4,5-trimethoxy-phenylamino)-pyrido[2,3-b]pyrazin-6-yl]-thiourea] yielded a melting point of 243 °C.

As for `CCNC(=O)Nc1cnc2ccc(Cl)nc2n1` [Example 1, 1-(6-Chloro-pyrido[2,3-b]pyrazin-3-yl)-3-ethyl-urea], the melting point came out at 240 °C.

On to `CCNC(=O)Nc1ccc2ncc(-c3cccc(C(=O)OCC)c3)nc2n1` [Compound 119, 3-[6-(3-Ethyl-ureido)-pyrido[2,3-b]pyrazin-3-yl]-benzoic acid ethyl ester], for which the melting point fell in the range of 222 to 223 °C.
